Laboratory results as given in article PMC8399019, “Inhibition of Cysteine Proteases by 6,6′-Dihydroxythiobinupharidine (DTBN) from Nuphar lutea” (Molecules, 2021).

Experiments:
Format in all cases: biochemical
[1] = target: T1, Human Cathepsin S (Homo sapiens, UniProt P25774); assay: Enzyme inhibition assay, Human Cathepsin S (fluorometric); settings: triplicates, value (SD)
T1 construct: purchased ABCAM (so in the source) 1183-cy
Protocol: (§1) Enzyme inhibition assays were performed in triplicates using transparent 96-well plates for Calpain, Trypsin, Papain, Cathepsin L and Cathepsin B (167008; Nunc, Roskilde, Denmark), or black ones for Cathepsin S, (Greiner 96 Polystyrol GRE96fb), according to manufacturers’ instructions. Briefly, a reaction mixture of 100 µL contained: 45µL of enzyme in assay buffer, 5 µL of inhibitor diluted in DMSO. 50 µL substrate prepared in assay buffer according to manufacturers’ instructions. The inhibitor was serially diluted in DMSO to concentrations from 0.0075 µg/µL to 0.0000075 µg/µL. A total of […] DMSO was added to the control sample. The enzyme substrate mix was added last, just before starting the fluorometric measurement. Data were collected for 1.5 h at 60 sec intervals.
(§2) Papain Latex (cat. No. p3125), Human Cathepsin B (cat.no. C0150), Trypsin and Calpain (cat. No. ab910119) and the substrate, casein-FITC, were obtained from Sigma-Aldrich. The assay was carried out in 0.3 M potassium chloride, 0.1 mM EDTA, and 3 mM DTT pH 6.5. Ex/Em = 485–535 nm. Human Cathepsins S (cat. No. 1183-cy) and L (cat.no. ab174030) and their substrates were Mca-RPKPVE-Nval-WRK (Dnp)-NH2 (ES002) and Ac-FR-AFC, respectively. They were obtained from ABCAM. Assay buffer for Human Cathepsin S was 50 mM NaOAc, 250 mM NaCl, 5 mM DTT pH 4.5. […]

[2] = target: T2, Human Cathepsin L (Homo sapiens, UniProt P07711); assay: Enzyme inhibition assay, Human Cathepsin L (fluorometric); settings: triplicates, value (SD)
T2 construct: purchased ABCAM ab174030
Protocol: as §1, §2

[3] = target: T3, Human Cathepsin B (Homo sapiens, UniProt P07858); assay: Enzyme inhibition assay, Human Cathepsin B (casein-FITC); settings: triplicates, value (SD)
T3 construct: purchased Sigma-Aldrich C0150
Protocol: as §1, §2

[4] = target: T4, Papain Latex (Carica papaya, UniProt P00784); assay: Enzyme inhibition assay, Papain Latex (casein-FITC)
T4 construct: purchased Sigma-Aldrich p3125
Protocol: as §1, §2

T4 sequence (P00784 134-345): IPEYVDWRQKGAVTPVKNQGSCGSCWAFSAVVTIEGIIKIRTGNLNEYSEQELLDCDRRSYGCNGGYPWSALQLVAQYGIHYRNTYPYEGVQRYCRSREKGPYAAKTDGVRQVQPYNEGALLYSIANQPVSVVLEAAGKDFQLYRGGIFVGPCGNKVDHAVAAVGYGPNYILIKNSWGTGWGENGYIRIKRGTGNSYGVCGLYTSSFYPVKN
T1 sequence (P25774 115-331): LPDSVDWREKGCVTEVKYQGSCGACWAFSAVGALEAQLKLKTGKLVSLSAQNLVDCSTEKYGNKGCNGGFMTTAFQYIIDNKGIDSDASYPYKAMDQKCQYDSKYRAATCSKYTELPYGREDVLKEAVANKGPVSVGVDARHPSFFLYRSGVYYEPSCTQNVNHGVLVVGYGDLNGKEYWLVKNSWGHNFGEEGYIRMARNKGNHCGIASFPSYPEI
T2 sequence (P07711 114-333): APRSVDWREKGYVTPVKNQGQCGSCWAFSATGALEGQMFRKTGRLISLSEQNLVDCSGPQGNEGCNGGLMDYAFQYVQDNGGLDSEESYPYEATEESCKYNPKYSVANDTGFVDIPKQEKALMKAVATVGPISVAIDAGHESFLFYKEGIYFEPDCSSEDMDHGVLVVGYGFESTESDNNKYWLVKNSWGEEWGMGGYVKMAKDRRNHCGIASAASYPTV

SMILES: CC1CCC(c2ccoc2)N2C1CCC1(CSC3(CCC4C(C)CCC(c5ccoc5)N4C3O)C1)C2O (stereo not shown) [DTBN, 6,6′-dihydroxythiobinupharidine]
- IC50 [1]: 3.2 µM
- IC50 [2]: 13.2 µM
- IC50 [3]: 1360 µM
- IC50 [4]: 70.4 µM
